From the NIST ThermoML archive (doi:10.1016/j.fluid.2006.10.023)
Values joined by “and” are separate entries in the source; they are usually repeats but may differ in a detail not shown here. Equal values may be shown once. Numbers after ± are expanded uncertainties.

Conditions: Liquid, Closed cell (Static) method

## FCC(F)(F)F [1,1,1,2-tetrafluoroethane]
253.15 K
  vapor or sublimation pressure: 133.5 ± 2.1 kPa
273.15 K
  vapor or sublimation pressure: 291.8 ± 2.2 kPa
293.15 K
  vapor or sublimation pressure: 572.1 ± 2.6 kPa

## C1CC1 [cyclopropane]
253.15 K
  vapor or sublimation pressure: 171.3 ± 2.1 kPa and 171.2 ± 2.1 kPa
273.15 K
  vapor or sublimation pressure: 344.1 ± 2.3 kPa and 344.7 ± 2.3 kPa
293.15 K
  vapor or sublimation pressure: 631.7 ± 2.8 kPa and 632.2 ± 2.8 kPa

## FC(F)C(F)(F)F [pentafluoroethane]
253.15 K
  vapor or sublimation pressure: 337.3 ± 2.3 kPa
273.15 K
  vapor or sublimation pressure: 672.1 ± 2.9 kPa
293.15 K
  vapor or sublimation pressure: 1204.7 ± 4.1 kPa
